In assay [1] the target is soluble human BACE1 catalytic domain (Homo sapiens, UniProt P56817). Description: BACE1 HTRF FRET Assay. The assay is classed as biochemical. To be noted: Ki calculated from IC50 using the Cheng-Prusoff equation; QSY7-APPswe-Eu substrate 200 nM final, pH 5.0, 30° C. The protocol:
A homogeneous time-resolved FRET assay can be used to determine IC50 values for inhibitors of the soluble human BACE1 catalytic domain. […] This substrate contains an N-terminal QSY7 moiety that serves as a quencher of the C-terminal Europium fluorophore (620nm Em). […] Inhibition of BACE1 cleavage of the QSY7-APP^swe-Eu substrate by inhibitors is manifested as a suppression of 620 nm fluorescence. […] The reactions are incubated at 30° C for 1.5 hours. The 620nm fluorescence is then read on a Rubystar HTRF plate reader (BMG Labtechnologies) using a 50 millisecond delay followed by a 400 millisecond acquisition time window. Inhibitor IC50 values are derived from non-linear regression analysis of concentration response curves.

Assay [2] addresses T1, purified human autoBACE-2 (Homo sapiens, UniProt Q9Y5Z0).
T1 sequence (Q9Y5Z0 63-473 limits assumed): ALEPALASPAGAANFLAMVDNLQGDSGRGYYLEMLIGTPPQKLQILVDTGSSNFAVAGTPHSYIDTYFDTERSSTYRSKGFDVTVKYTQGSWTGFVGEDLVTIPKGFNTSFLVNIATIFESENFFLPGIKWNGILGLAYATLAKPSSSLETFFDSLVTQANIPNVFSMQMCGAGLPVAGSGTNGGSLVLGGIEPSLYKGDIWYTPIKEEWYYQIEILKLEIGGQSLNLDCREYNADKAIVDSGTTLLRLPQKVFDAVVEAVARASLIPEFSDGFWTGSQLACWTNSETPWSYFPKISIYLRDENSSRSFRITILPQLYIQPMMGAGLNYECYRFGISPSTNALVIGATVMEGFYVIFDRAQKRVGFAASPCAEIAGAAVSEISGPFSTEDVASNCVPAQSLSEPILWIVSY
In words: BACE-2 Assay (BACE-HTRF assay). The assay is classed as biochemical. To be noted: Ki calculated from IC50 using the Cheng-Prusoff equation; QSY7-EISEVNLDAEFC-Eu-amide substrate 200 nM final, pH 5.0, 30°C; read-out: BACE2 Ki. On the procedure: Inhibitor IC50's at purified human autoBACE-2 are determined in a time-resolved endpoint proteolysis assay that measures hydrolysis of the QSY7-[…]-Eu-amide FRET peptide substrate (BACE-HTRF assay). […] Inhibitor compounds, prepared at 3x the desired final concentration in 1x BACE assay buffer (20 mM sodium acetate pH 5.0,10% glycerol, 0.1% Brij-35) supplemented with 7.5% DMSO are pre-incubated with an equal volume of autoBACE-2 enzyme diluted in 1x BACE assay buffer (final enzyme concentration 1 nM) in black 384-well NUNC plates for 30 minutes at 30°C. […] DMSO is present at 5% final concentration in the assay. Following laser excitation of sample wells at 320 nm, the fluorescence signal at 620 nm is collected for 400 ms following a 50 µs delay on a RUBYstar HTRF plate reader (BMG Labtechnologies). Raw RFU data is normalized to maximum (1.0 nM BACE/DMSO) and minimum (no enzyme/DMSO) RFU values. […] The Ki values are calculated from the IC50 using the Cheng-Prusoff equation.

soluble human BACE1 catalytic domain, sequence (P56817 75-416 limits assumed): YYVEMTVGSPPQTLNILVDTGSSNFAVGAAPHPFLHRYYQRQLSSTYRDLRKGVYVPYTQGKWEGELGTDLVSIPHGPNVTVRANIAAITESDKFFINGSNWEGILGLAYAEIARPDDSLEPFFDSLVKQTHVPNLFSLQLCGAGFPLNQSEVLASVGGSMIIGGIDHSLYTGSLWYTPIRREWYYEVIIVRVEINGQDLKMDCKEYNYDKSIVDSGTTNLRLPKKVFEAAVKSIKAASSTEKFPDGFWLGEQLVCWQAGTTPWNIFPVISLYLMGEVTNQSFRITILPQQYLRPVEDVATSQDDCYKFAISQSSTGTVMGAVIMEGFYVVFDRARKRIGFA

As usually defined, the Ki is the equilibrium dissociation constant of an inhibitor or competing ligand from its target. `COc1ccc(C(=O)Nc2ccc(F)c([C@@]3(C)NC(=N)N(C)S(=O)(=O)[C@]34CCN(S(=O)(=O)c3ccc(F)cc3)C4)c2)nc1` [Example 71]: the Ki is 24 nM in assay [1] and 30 nM in assay [2].

Take `COc1ccc(C(=O)Nc2ccc(F)c([C@@]3(C)NC(=N)N(C)S(=O)(=O)[C@]34CCN(S(C)(=O)=O)C4)c2)nc1` [Example 68]: the figures for the inhibition constant (Ki) in assay [1] and in assay [2] were 35 nM and 205 nM, respectively.

In the case of `COc1ccc(C(=O)Nc2ccc(F)c([C@@]3(C)NC(=N)N(C)S(=O)(=O)[C@]34CCN(S(=O)(=O)CC(C)C)C4)c2)nc1` [Example 70], the Ki in assay [1] was 37 nM; in assay [2] it was 100 nM.

With `COc1ccc(C(=O)Nc2ccc(F)c([C@@]3(C)NC(=N)N(C)S(=O)(=O)[C@@]34CCN(S(=O)(=O)CC3CCCO3)C4)c2)nc1` (stereo partly shown) [Example 62], the Ki in assay [1] is 3 nM; in assay [2], 19 nM.

With `COc1ccc(C(=O)Nc2ccc(F)c([C@@]3(C)NC(=N)N(C)S(=O)(=O)[C@]34CCN(S(=O)(=O)CC(F)(F)F)C4)c2)nc1` [Example 72], the Ki in assay [1] is 28 nM; in assay [2] it was 99 nM.

`CC(C)CC(=O)N1CCC2(C1)[C@@](C)(c1cc(NC(=O)c3ccc(F)cn3)ccc1F)NC(=N)N(C)S2(=O)=O` (stereo partly shown) [Example 7]: the Ki in assay [1] is 2.8 nM; in assay [2] it was 5.7 nM.

On to `CN1C(=N)N[C@](C)(c2cc(NC(=O)c3ccc(F)cn3)ccc2F)[C@]2(CCN(S(=O)(=O)c3ccc(F)cc3)C2)S1(=O)=O` [Example 73], for which the Ki in assay [1] is 3 nM; in assay [2], 10 nM.

For the compound `COc1ccc(C(=O)Nc2ccc(F)c([C@@]3(C)NC(=N)N(C)S(=O)(=O)[C@]34CCN(S(=O)(=O)c3ccccc3)C4)c2)nc1` [Example 63], the values for the Ki in assay [1] and in assay [2] were 12 nM and 24 nM, respectively.

`COc1ccc(C(=O)Nc2ccc(F)c([C@@]3(C)NC(=N)N(C)S(=O)(=O)[C@]34CCN(CC3CCOC3)C4)c2)nc1` (stereo partly shown) [Example 20]: the Ki in assay [1] is 51 nM; in assay [2], 188 nM.

Take `CN1C(=N)N[C@](C)(c2cc(NC(=O)c3ccc(F)cn3)ccc2F)[C@@]2(CCN(Cc3cscn3)C2)S1(=O)=O` [Example 42]: the Ki is 32 nM in assay [1] and 25 nM in assay [2].

As for `CN1C(=N)N[C@](C)(c2cc(NC(=O)c3ccc(F)cn3)ccc2F)[C@]2(CCN(S(=O)(=O)Cc3cccnc3)C2)S1(=O)=O` [Example 80], the Ki in assay [1] was 2 nM; in assay [2] it was 5 nM.

`CN1C(=N)N[C@](C)(c2cc(NC(=O)c3ccc(F)cn3)ccc2F)[C@@]2(CCN(S(C)(=O)=O)C2)S1(=O)=O` [Example 88]: the values for the Ki in assay [1] and in assay [2] were 34 nM and 54 nM, respectively.

On to `CN1C(=N)N[C@](C)(c2cc(NC(=O)c3ccc(F)cn3)ccc2F)[C@@]2(CCN(S(=O)(=O)Cc3cccnc3)C2)S1(=O)=O` [Example 93], for which the values for the Ki in assay [1] and in assay [2] were 28 nM and 20 nM, respectively.

For `COc1ccc(C(=O)Nc2ccc(F)c([C@@]3(C)NC(=N)N(C)S(=O)(=O)[C@]34CCN(Cc3ccccn3)C4)c2)nc1` [Example 22], the inhibition constant Ki in assay [1] was 26 nM; in assay [2] it was 79 nM.

As to `COc1ccc(C(=O)Nc2ccc(F)c([C@@]3(C)NC(=N)N(C)S(=O)(=O)[C@@]34CCN(S(=O)(=O)c3cn(C)cn3)C4)c2)nc1` [Example 61], the values for the Ki in assay [1] and in assay [2] were 6 nM and 38 nM, respectively.

Regarding `COc1ccc(C(=O)Nc2ccc(F)c([C@@]3(C)NC(=N)N(C)S(=O)(=O)[C@@]34CCN(S(=O)(=O)c3ccc(F)cc3)C4)c2)nc1` [Example 58], the results for the inhibition constant Ki in assay [1] and in assay [2] were 3 nM and 20 nM, respectively.

In the case of `COc1ccc(C(=O)Nc2ccc(F)c([C@@]3(C)NC(=N)N(C)S(=O)(=O)[C@]34CCN(S(=O)(=O)c3cn(C)cn3)C4)c2)nc1` [Example 65], the Ki in assay [1] was 29 nM; in assay [2], 68 nM.

Regarding `CC(C)CS(=O)(=O)N1CC[C@]2(C1)[C@@](C)(c1cc(NC(=O)c3ccc(F)cn3)ccc1F)NC(=N)N(C)S2(=O)=O` [Example 90], the Ki in assay [1] was 48 nM; in assay [2], 29 nM.

For `CC(=O)N1CCC2(C1)[C@@](C)(c1cc(NC(=O)c3ccc(F)cn3)ccc1F)NC(=N)N(C)S2(=O)=O` (stereo partly shown) [Example 4], the Ki is 3.7 nM in assay [1] and 9 nM in assay [2].

In the case of `CN1C(=N)N[C@](C)(c2cc(NC(=O)c3ccc(F)cn3)ccc2F)[C@]2(CCN(Cc3ccccn3)C2)S1(=O)=O` [Example 41], the Ki in assay [1] was 3 nM; in assay [2] it was 6 nM.

For `CN1C(=N)N[C@](C)(c2cc(NC(=O)c3ccc(F)cn3)ccc2F)[C@@]2(CCN(S(=O)(=O)c3cn(C)cn3)C2)S1(=O)=O` [Example 94], the inhibitory constant (Ki) was 37 nM in assay [1] and 19 nM in assay [2].

As to `COC1CC(CN2CC[C@]3(C2)[C@@](C)(c2cc(NC(=O)c4ccc(F)cn4)ccc2F)NC(=N)N(C)S3(=O)=O)C1` (stereo partly shown) [Example 44], the Ki was 120 nM in assay [1] and 52 nM in assay [2].

Take `CCS(=O)(=O)N1CC[C@]2(C1)[C@@](C)(c1cc(NC(=O)c3ccc(F)cn3)ccc1F)NC(=N)N(C)S2(=O)=O` [Example 89]: the figures for the Ki in assay [1] and in assay [2] were 45 nM and 41 nM, respectively.

For `CN1C(=N)N[C@](C)(c2cc(NC(=O)c3ccc(F)cn3)ccc2F)[C@@]2(CCN(Cc3ccccn3)C2)S1(=O)=O` [Example 45], the results for the Ki in assay [1] and in assay [2] were 33 nM and 23 nM, respectively.

With `CN1C(=N)N[C@](C)(c2cc(NC(=O)c3ccc(F)cn3)ccc2F)[C@@]2(CCN(CC3CC3)C2)S1(=O)=O` [Example 47], the Ki in assay [1] was 58 nM; in assay [2], 51 nM.

`CN1C(=N)N[C@](C)(c2cc(NC(=O)c3ccc(F)cn3)ccc2F)[C@@]2(CCN(Cc3cocn3)C2)S1(=O)=O` [Example 49]: the values for the Ki in assay [1] and in assay [2] were 33 nM and 21 nM, respectively.

For the compound `CC(C)CS(=O)(=O)N1CC[C@@]2(C1)[C@@](C)(c1cc(NC(=O)c3ccc(F)cn3)ccc1F)NC(=N)N(C)S2(=O)=O` [Example 77], the values for the Ki in assay [1] and in assay [2] were 2 nM and 3 nM, respectively.

Take `CN1C(=N)N[C@](C)(c2cc(NC(=O)c3ccc(F)cn3)ccc2F)C2(CCN(Cc3ccccc3)C2)S1(=O)=O` (stereo partly shown) [Example 1]: the Ki is 3.4 nM in assay [1] and 4.5 nM in assay [2].

Consider `CCS(=O)(=O)N1CC[C@@]2(C1)[C@@](C)(c1cc(NC(=O)c3ccc(F)cn3)ccc1F)NC(=N)N(C)S2(=O)=O` [Example 76], for which the figures for the inhibitory constant (Ki) in assay [1] and in assay [2] were 2 nM and 4 nM, respectively.

These data come from EP2934149B1, “C6-AZASPIRO IMINOTHIADIAZINE DIOXIDES AS BACE INHIBITORS” (Merck Sharp & Dohme Corp., priority 2012, dated 2014).
